pKi: −log10 of the molar value. Calls of active or inactive are those of the source. The rule behind the calls is not given here.
Assays:
Adenosylhomocysteinase = Adenosylhomocysteinase (Homo sapiens, UniProt P23526); assay: Inhibition of human SAHH
[1] = (§1) Inhibition of Plasmodium falciparum SAHH
Plasmodium falciparum = assay: as §1

Row | pKi (Adenosylhomocysteinase) | Kinact (Adenosylhomocysteinase) | Kinact (Plasmodium falciparum) | Activity (Plasmodium falciparum) | Structure (SMILES) | pKi [1]
1 | 4.69 | 0.133 min⁻¹ | 0.099 min⁻¹ |  | Nc1nc(F)nc2c1ncn2[C@@H]1C[C@H]2O[C@H]2[C@H]1O | 4.84
2 | 4.91 | 0.552 min⁻¹ |  | inactive | Nc1ncnc2c1ncn2[C@@H]1C[C@H]2O[C@H]2[C@H]1O | 
3 |  | 0.09 min⁻¹ |  |  | Nc1ncnc2c1ncn2C[C@H](O)[C@H](O)C=O | 

— ChEMBL document CHEMBL1157435, “Synthesis of 3',4'-epoxynoraristeromycin analogs for molecular labeling probe of S-adenosyl-l-homocysteine hydrolase” (Bioorg Med Chem, 2008)
